Experimental data from patent US8415351B2 (priority 2007, dated 2013).

Key:
[1] = biological target: T1, HCV polymerase 1A (Δ21 NS5B, H77) (Hepatitis C virus genotype 1a, UniProt P27958); test: biochemical; conditions: IC50 1a
T1 construct: 20 to 50 nM Δ21 NS5B
Summary of the method: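 Radiometric assay with Δ21 NS5B (H77): 20 μM CTP, 20 μM ATP, 1 μM ^3H-UTP, 5 nM template RNA, 2–4 h at room temperature. RNA precipitated with spermine, filter-captured and counted. IC50 from non-linear fit of retained cpm vs inhibitor concentration (tight-binding equation).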

[2] = biological target: T2, HCV polymerase 1B (Δ21 NS5B, BK) (Hepatitis C virus genotype 1b, UniProt P26663); test: biochemical
T2 construct: 20 to 50 nM Δ21 NS5B
Summary of the method: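 Δ21 NS5B (genotype 1b, BK […]) preincubated 15 min RT with inhibitor, 2 mM MnCl2, pH 7.4, 60–125 μM GTP; started with 20 μM CTP/ATP, 1 μM 3H-UTP, 5 nM template RNA, run 2–4 h RT. Spermine-precipitated RNA filter-captured, scintillation counted; IC50 from tight-binding (Morrison) fit.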

[3] = tested on: genotype 1a-H77 subgenomic replicon cell line; test: microbe, parasite or virus in culture; format: cell-based, HCV; conditions: Hepatitis C virus, read-out: EC50 1a
[4] = tested on: genotype 1b-Con1 subgenomic replicon cell line; test: microbe, parasite or virus in culture; format: cell-based, HCV; conditions: Hepatitis C virus, read-out: EC50 1b

T2 sequence (P26663 2420-2989, stated change not applied): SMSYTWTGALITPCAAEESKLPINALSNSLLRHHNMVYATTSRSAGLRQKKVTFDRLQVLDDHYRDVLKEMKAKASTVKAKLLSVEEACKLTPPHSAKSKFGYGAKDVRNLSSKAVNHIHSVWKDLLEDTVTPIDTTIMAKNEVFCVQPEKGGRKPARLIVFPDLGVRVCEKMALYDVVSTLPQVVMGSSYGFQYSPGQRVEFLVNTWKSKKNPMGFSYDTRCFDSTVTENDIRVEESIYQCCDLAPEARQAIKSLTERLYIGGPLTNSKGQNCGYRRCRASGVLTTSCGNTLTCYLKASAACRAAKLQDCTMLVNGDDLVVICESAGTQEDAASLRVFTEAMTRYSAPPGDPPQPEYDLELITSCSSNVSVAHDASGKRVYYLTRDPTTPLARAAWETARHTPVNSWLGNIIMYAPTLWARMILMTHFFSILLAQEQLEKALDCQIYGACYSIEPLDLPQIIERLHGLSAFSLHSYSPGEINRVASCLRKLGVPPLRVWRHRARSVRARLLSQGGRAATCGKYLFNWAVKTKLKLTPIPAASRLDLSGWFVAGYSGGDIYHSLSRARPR
T1 sequence (P27958 2421-2990, stated change not applied): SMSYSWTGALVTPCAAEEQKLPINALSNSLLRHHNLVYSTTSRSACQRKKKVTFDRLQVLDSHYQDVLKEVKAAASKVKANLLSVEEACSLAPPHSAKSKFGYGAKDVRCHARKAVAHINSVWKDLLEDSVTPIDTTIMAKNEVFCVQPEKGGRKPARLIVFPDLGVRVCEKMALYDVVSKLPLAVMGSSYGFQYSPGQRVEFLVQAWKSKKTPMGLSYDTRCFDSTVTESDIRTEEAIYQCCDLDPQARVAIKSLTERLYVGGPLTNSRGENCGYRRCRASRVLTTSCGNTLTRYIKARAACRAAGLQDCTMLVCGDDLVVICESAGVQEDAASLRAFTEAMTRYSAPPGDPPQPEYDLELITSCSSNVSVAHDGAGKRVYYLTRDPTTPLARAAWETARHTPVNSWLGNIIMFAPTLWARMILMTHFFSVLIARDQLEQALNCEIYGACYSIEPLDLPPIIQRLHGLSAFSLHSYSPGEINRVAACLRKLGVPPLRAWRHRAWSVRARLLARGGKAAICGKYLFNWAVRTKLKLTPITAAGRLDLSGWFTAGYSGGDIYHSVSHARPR

Structure (SMILES)	IC50 [1] [nM]	IC50 [2] [nM]	EC50 [3] [nM]	EC50 [4] [nM]
COc1c(C#Cc2ccc(NS(C)(=O)=O)cn2)cc(N2CCC(=O)NC2=O)cc1C(C)(C)C [IA-L2-1.25, N-(6-((3-tert-butyl-5-(2,4-dioxotetrahydropyrimidin-1(2H)-yl)-2-methoxyphenyl)ethynyl)pyridin-3-yl)methanesulfonamide]	< 10	10 to 100	100 to 1000	10 to 100
COc1c(C#Cc2ccc(NS(C)(=O)=O)nc2)cc(N2CCC(=O)NC2=O)cc1C(C)(C)C [IA-L2-1.26, N-(5-((3-tert-butyl-5-(2,4-dioxotetrahydropyrimidin-1(2H)-yl)-2-methoxyphenyl)ethynyl)-pyridin-2-yl)methanesulfonamide 2,2,2-trifluoroacetate]	10 to 100	10 to 100	10 to 100	10 to 100
COc1c(C#Cc2ccc(NS(C)(=O)=O)c3ccccc23)cc(N2CCC(=O)NC2=O)cc1C(C)(C)C [IA-L2-2.1, N-(4-((3-tert-butyl-5-(2,4-dioxotetrahydropyrimidin-1(2H)-yl)-2-methoxyphenyl)ethynyl)-naphthalen-1-yl)methanesulfonamide]	10 to 100	10 to 100	100 to 1000	100 to 1000
CN(C(=O)c1cc(N2CCC(=O)NC2=O)cc(C(C)(C)C)c1O)c1ccc(NS(C)(=O)=O)cc1 [IA-L3-1.2, 3-tert-butyl-5-(2,4-dioxotetrahydropyrimidin-1(2H)-yl)-2-hydroxy-N-methyl-N-(4-(methyl-sulfonamido)phenyl)benzamide]	> 1000	10 to 100	> 1000	> 1000
CC(C)(C)c1cc(N2CCC(=O)NC2=O)cc(C(=O)Nc2ccccc2)c1O [IA-L3-1.3, 3-tert-butyl-5-(2,4-dioxotetrahydropyrimidin-1(2H)-yl)-2-hydroxy-N-phenylbenzamide]	> 1000	100 to 1000	> 1000	> 1000
CN(c1ccc(NC(=O)c2cc(N3CCC(=O)NC3=O)cc(C(C)(C)C)c2O)cc1)S(C)(=O)=O [IA-L3-1.4, 3-tert-butyl-5-(2,4-dioxotetrahydropyrimidin-1(2H)-yl)-2-hydroxy-N-(4-(N-methylmethylsulfonamido)phenyl)benzamide]	100 to 1000	10 to 100	> 1000	> 1000
CC(C)(C)c1cc(N2CCC(=O)NC2=O)cc(C(=O)Nc2cccc(NS(C)(=O)=O)c2)c1O [IA-L3-1.5, 3-tert-butyl-5-(2,4-dioxotetrahydropyrimidin-1(2H)-yl)-2-hydroxy-N-(3-(methylsulfonamido)phenyl)benzamide]	100 to 1000	10 to 100	> 1000	> 1000
CC(C)(C)c1cc(N2CCC(=O)NC2=O)cc(C(=O)Nc2ccc(NS(C)(=O)=O)cc2)c1O [IA-L3-1.6, 3-tert-butyl-5-(2,4-dioxotetrahydropyrimidin-1(2H)-yl)-2-hydroxy-N-(4-(methylsulfonamido)phenyl)benzamide]	10 to 100	< 10	100 to 1000	10 to 100
CC(C)CS(=O)(=O)Nc1ccc(NC(=O)c2cc(N3CCC(=O)NC3=O)cc(C(C)(C)C)c2O)cc1 [IA-L3-1.7, 3-tert-butyl-5-(2,4-dioxotetrahydropyrimidin-1(2H)-yl)-2-hydroxy-N-(4-(2-methylpropylsulfonamido)phenyl)benzamide]	100 to 1000	10 to 100	> 1000	> 1000
COCCS(=O)(=O)Nc1ccc(NC(=O)c2cc(N3CCC(=O)NC3=O)cc(C(C)(C)C)c2O)cc1 [IA-L3-1.8, 3-tert-butyl-5-(2,4-dioxotetrahydropyrimidin-1(2H)-yl)-2-hydroxy-N-(4-(2-methoxyethylsulfonamido)phenyl)benzamide]	10 to 100	10 to 100	> 1000	100 to 1000
CC(C)(C)c1cc(N2CCC(=O)NC2=O)cc(C(=O)Nc2ccc(NS(=O)(=O)CC(F)(F)F)cc2)c1O [IA-L3-1.9, 3-tert-butyl-5-(2,4-dioxotetrahydropyrimidin-1(2H)-yl)-2-hydroxy-N-(4-(2,2,2-trifluoroethylsulfonamido)phenyl)benzamide]	100 to 1000	10 to 100	> 1000	> 1000
CC(C)(C)c1cc(N2CCC(=O)NC2=O)cc(C(=O)Nc2ccc(NS(=O)(=O)c3ccccc3)cc2)c1O [IA-L3-1.10, 3-tert-butyl-5-(2,4-dioxotetrahydropyrimidin-1(2H)-yl)-2-hydroxy-N-(4-(phenylsulfon-amido)phenyl)benzamide]	10 to 100	10 to 100	100 to 1000	100 to 1000
CC(C)(C)c1cc(N2CCC(=O)NC2=O)cc(C(=O)Nc2cccc(CNS(C)(=O)=O)c2)c1O [IA-L3-1.11, 3-tert-butyl-5-(2,4-dioxotetrahydropyrimidin-1(2H)-yl)-2-hydroxy-N-(3-(methylsulfon-amidomethyl)phenyl)benzamide]	> 1000	100 to 1000	> 1000	> 1000
CC(C)(C)c1cc(N2CCC(=O)NC2=O)cc(C(=O)Nc2ccc(NS(=O)(=O)Cc3ccccc3)cc2)c1O [IA-L3-1.12, 3-tert-butyl-5-(2,4-dioxotetrahydropyrimidin-1(2H)-yl)-2-hydroxy-N-(4-(phenylmethyl-sulfonamido)phenyl)benzamide]	100 to 1000	10 to 100	> 1000	> 1000
Cc1noc(C)c1S(=O)(=O)Nc1ccc(NC(=O)c2cc(N3CCC(=O)NC3=O)cc(C(C)(C)C)c2O)cc1 [IA-L3-1.13, 3-tert-butyl-N-(4-(3,5-dimethylisoxazole-4-sulfonamido)phenyl)-5-(2,4-dioxotetrahydro-pyrimidin-1(2H)-yl)-2-hydroxybenzamide]	100 to 1000	< 10	> 1000	> 1000
CC(C)(C)c1cc(N2CCC(=O)NC2=O)cc(C(=O)Nc2ccc(CC(=O)O)cc2)c1O [IA-L3-1.15, 2-(4-(3-tert-butyl-5-(2,4-dioxotetrahydropyrimidin-1(2H)-yl)-2-hydroxybenzamido)phenyl)-acetic acid]	> 1000	100 to 1000	> 1000	> 1000
CNS(=O)(=O)Cc1ccc(NC(=O)c2cc(N3CCC(=O)NC3=O)cc(C(C)(C)C)c2O)cc1 [IA-L3-1.16, 3-tert-butyl-5-(2,4-dioxotetrahydropyrimidin-1(2H)-yl)-2-hydroxy-N-(4-(N-methylsulfamoylmethyl)phenyl)benzamide]	> 1000	10 to 100	> 1000	> 1000
CC(C)(C)c1cc(N2CCC(=O)NC2=O)cc(C(=O)Nc2ccc(OS(C)(=O)=O)cc2)c1O [IA-L3-1.19, 4-(3-tert-butyl-5-(2,4-dioxotetrahydropyrimidin-1(2H)-yl)-2-hydroxybenzamido)phenyl methanesulfonate]	100 to 1000	10 to 100	> 1000	> 1000
CC(C)(C)c1cc(N2CCC(=O)NC2=O)cc(C(=O)Nc2ccccc2S(C)(=O)=O)c1O [IA-L3-1.20, 3-tert-butyl-5-(2,4-dioxotetrahydropyrimidin-1(2H)-yl)-2-hydroxy-N-(2-(methylsulfonyl)phenyl)benzamide]	> 1000	10 to 100	> 1000	> 1000
